# Measured values reported in patent US7384965B2, “Fused heterocyclic derivatives as PPAR modulators” (Eli Lilly and Company, priority 2003, dated 2008).
row,Compound,melting point
1,"CCC(Sc1ccc(CCC(=O)O)c(C)c1)c1ccc2nc(-c3ccc(C(F)(F)F)cc3)sc2c1 (racemic) [Example 64, (+/−)-3-(2-Methyl-4-{1-[2-(4-trifluoromethylphenyl)benzothiazol-6-yl]propylsulfanyl}phenyl)propionic Acid]",105 to 108 °C
2,"Cc1cc(SC(C)(C)c2cccc3nc(-c4ccc(C(F)(F)F)cc4)oc23)ccc1OCC(=O)O [Example 75, 2-Methyl-4-{1-methyl-1-[2-(4-trifluoromethylphenyl)benzooxazol-7-yl]ethylsulfanyl}phenoxyacetic Acid]",131 to 133 °C
3,"Cc1cc(SCCc2cccc3sc(-c4ccc(C(F)(F)F)cc4)nc23)ccc1OCC(=O)O [Example 48, 2-Methyl-4-{2-[2-(4-trifluoromethylphenyl)benzothiazol-4-yl]ethylsulfanyl}phenoxyacetic Acid]",97 to 100 °C
4,"CCc1cc(SCc2ccc3sc(-c4ccc(C(F)(F)F)cc4)nc3c2)ccc1OCC(=O)O [Example 53, 2-Ethyl-4-[2-(4-trifluoromethylphenyl)benzothiazol-5-ylmethylsulfanyl]phenoxyacetic Acid]",140 to 142 °C
5,"Cc1cc(SCc2ccnc3[nH]c(-c4ccc(C(F)(F)F)cc4)nc23)ccc1OCC(=O)O [Example 103, 2-Methyl-4-[2-(4-trifluoromethylphenyl)-3H-imidazo[4,5-b]pyridin-7-ylmethylsulfanyl]phenoxyacetic Acid]",239 to 241 °C
6,"Cc1cc(SCc2ccnc3sc(-c4ccc(C(F)(F)F)cc4)nc23)ccc1OCC(=O)O [Example 100, 2-Methyl-4-[2-(4-trifluoromethylphenyl)thiazolo[5,4-b]pyridine-7-ylmethylsulfanyl]phenoxyacetic Acid]",82 to 85 °C
7,"O=C(O)Cc1csc2cc(OCc3cccc4sc(-c5ccc(C(F)(F)F)cc5)nc34)ccc12 [Example 42, 6-[2-(4-Trifluoromethylphenyl)benzothiazol-4-ylmethoxy]benzo[b]thiophen-3-ylacetic Acid]",185 to 190 °C
8,"Cc1cc(SCc2cccc3c2nc(-c2ccc(C(F)(F)F)cc2)n3C)ccc1OCC(=O)O [Example 89, 2-Methyl-4-[1-methyl-2-(4-trifluoromethylphenyl)-1H-benzoimidazol-4-ylmethylsulfanyl]phenoxyacetic Acid]",192 to 194 °C
9,O=C(O)Cc1cccc(SCc2ccnc3[nH]c(-c4ccc(C(F)(F)F)cc4)nc23)c1 [Example 107],213 to 215 °C
10,"Cc1cc(SCc2ccc3sc(-c4ccc(C(F)(F)F)cc4)nc3c2)ccc1OCC(=O)O [Example 51, 2-Methyl-4-[2-(4-trifluoromethylphenyl)benzothiazol-5-ylmethylsulfanyl]phenoxyacetic Acid]",138 to 140 °C
11,"Cc1cc(SCc2ccc3sc(-c4ccc(C(F)(F)F)cc4)nc3c2)ccc1CCC(=O)O [Example 52, 3-{2-Methyl-4-[2-(4-trifluoromethylphenyl)benzothiazol-5-ylmethylsulfanyl]phenyl}propionic Acid]",141 to 143 °C
12,"CCc1cc(SCc2cccc3[nH]c(-c4ccc(C(F)(F)F)cc4)cc23)ccc1OCC(=O)O [Example 94, 2-Ethyl-4-[2-(4-trifluoromethylphenyl)-1H-indol-4-ylmethylsulfanyl]phenoxyacetic Acid]",174 to 176 °C
13,"Cc1cc(SCc2cccc3nc(-c4ccc(C(F)(F)F)cc4)oc23)ccc1OCC(=O)O [Example 74, 2-Methyl-4-[2-(4-trifluoromethylphenyl)benzooxazol-7-ylmethylsulfanyl]phenoxyacetic Acid]",172 to 174 °C
14,"CCc1cc(SCc2cccc3c2nc(-c2ccc(C(F)(F)F)cc2)n3C)ccc1OCC(=O)O [Example 91, 2-Ethyl-4-[1-methyl-2-(4-trifluoromethylphenyl)-1H-benzoimidazol-4-ylmethylsulfanyl]phenoxyacetic Acid]",178 to 180 °C
15,"Cc1cc(SCc2ccnc3oc(-c4ccc(C(F)(F)F)cc4)nc23)ccc1CCC(=O)O [Example 96, 3-{2-Methyl-4-[2-(4-trifluoromethylphenyl)oxazolo[5,4-b]pyridin-7-ylmethylsulfanyl]phenyl}propionic Acid]",> 260 °C (dec.)
16,"Cc1cc(SCc2ccnc3oc(-c4ccc(C(F)(F)F)cc4)nc23)ccc1OCC(=O)O [Example 95, 2-Methyl-4-[2-(4-trifluoromethylphenyl)oxazolo[5,4-b]pyridine-7-ylmethylsulfanyl]phenoxyacetic Acid]",154 to 157 °C
17,"Cc1cc(SCc2ccnc3[nH]c(-c4ccc(C(F)(F)F)cc4)nc23)ccc1CCC(=O)O [Example 104, 3-{2-Methyl-4-[2-(4-trifluoromethylphenyl)-3H-imidazo[4,5-b]pyridin-7-ylmethylsulfanyl]phenyl}propionic Acid]",180 to 182 °C
18,"CCc1cc(SCc2ccnc3c2nc(-c2ccc(C(F)(F)F)cc2)n3C)ccc1OCC(=O)O [Example 109, 2-Ethyl-4-[3-methyl-2-(4-trifluoromethylphenyl)-3H-imidazo[4,5-b]pyridin-7-ylmethylsulfanyl]phenoxyacetic Acid]",118 to 120 °C

row,Compound,melting point
1,"Cc1cc(OCc2ccc3nc(-c4ccc(C(F)(F)F)cc4)sc3c2)ccc1CCC(=O)O [Example 60, 3-{2-Methyl-4-[2-(4-trifluoromethylphenyl)benzothiazol-6-ylmethoxy]phenyl}propionic Acid]",198 to 200 °C
2,"Cc1cc(SCc2ccnc3sc(-c4ccc(C(F)(F)F)cc4)nc23)ccc1CCC(=O)O [Example 101, 3-{2-Methyl-4-[2-(4-trifluoromethylphenyl)thiazolo[5,4-b]pyridin-7-ylmethylsulfanyl]phenyl}propionic Acid]",65 to 70 °C
3,"O=C(O)Cc1csc2cc(OCc3cccc4nc(-c5ccc(C(F)(F)F)cc5)oc34)ccc12 [Example 70, 6-[2-(4-Trifluoromethylphenyl)benzooxazol-7-ylmethoxy]benzo[b]thiophen-3-ylacetic Acid]",215 to 216 °C
4,"CCc1cc(SCc2ccc3nc(-c4ccc(C(F)(F)F)cc4)sc3c2)ccc1OCC(=O)O [Example 59, 2-Ethyl-4-[2-(4-trifluoromethylphenyl)benzothiazol-6-ylmethylsulfanyl]phenoxyacetic Acid]",144 to 147 °C
5,"CCc1cc(SCc2cccc3nc(-c4ccc(C(F)(F)F)cc4)oc23)ccc1OCC(=O)O [Example 72, 2-Ethyl-4-[2-(4-trifluoromethylphenyl)benzooxazol-7-ylmethylsulfanyl]phenoxyacetic Acid]",170 to 173 °C
6,"CCc1cc(SCCc2cccc3sc(-c4ccc(C(F)(F)F)cc4)nc23)ccc1OCC(=O)O [Example 50, 2-Ethyl-4-{2-[2-(4-trifluoromethylphenyl)benzothiazol-4-yl]ethylsulfanyl}phenoxyacetic Acid]",84 to 86 °C
7,"CCc1cc(OCc2ccc3nc(-c4ccc(C(F)(F)F)cc4)sc3c2)ccc1CCC(=O)O [Example 61, 3-{2-Ethyl-4-[2-(4-trifluoromethylphenyl)benzothiazol-6-ylmethoxy]phenyl}propionic Acid]",203 to 205 °C
8,"CCc1cc(SC(C)(C)c2cccc3nc(-c4ccc(C(F)(F)F)cc4)oc23)ccc1OCC(=O)O [Example 77, 2-Ethyl-4-{1-methyl-1-[2-(4-trifluoromethylphenyl)benzooxazol-7-yl]ethylsulfanyl}phenoxyacetic Acid]",122 to 125 °C
9,"Cc1cc(SCc2cccc3oc(-c4ccc(C(F)(F)F)cc4)nc23)ccc1OCC(=O)O [Example 65, 2-Methyl-4-[2-(4-trifluoromethylphenyl)benzooxazol-4-ylmethylsulfanyl]-phenoxyacetic Acid]",160 to 162 °C (dec.)
10,"CCc1cc(OCc2ccc3sc(-c4ccc(C(F)(F)F)cc4)nc3c2)ccc1CCC(=O)O [Example 55, 3-{2-Ethyl-4-[2-(4-trifluoromethylphenyl)benzothiazol-5-ylmethoxy]phenyl}propionic Acid]",188 to 190 °C
11,"Cc1cc(SCCc2cccc3sc(-c4ccc(C(F)(F)F)cc4)nc23)ccc1CCC(=O)O [Example 49, 3-(2-Methyl-4-{2-[2-(4-trifluoromethylphenyl)benzothiazol-4-yl]ethylsulfanyl}phenyl)propionic Acid]",118 to 120 °C
12,"CCc1cc(SCc2ccnc3sc(-c4ccc(C(F)(F)F)cc4)nc23)ccc1OCC(=O)O [Example 102, 2-Ethyl-4-[2-(4-trifluoromethylphenyl)thiazolo[5,4-b]pyridin-7-ylmethylsulfanyl]phenoxyacetic Acid]",176 to 178 °C
13,"O=C(O)Cc1csc2cc(SCc3cccc4nc(-c5ccc(C(F)(F)F)cc5)oc34)ccc12 [Example 71, 6-[2-(4-Trifluoromethylphenyl)benzooxazol-7-ylmethylsulfanyl]benzo[b]thiophen-3-ylacetic Acid]",208 to 210 °C
14,"Cn1c(-c2ccc(C(F)(F)F)cc2)nc2c(CSc3cccc(CC(=O)O)c3)cccc21 [Example 92, 3-[1-Methyl-2-(4-trifluoromethylphenyl)-1H-benzoimidazol-4-ylmethylsulfanyl]phenylacetic Acid]",178 to 180 °C
15,"Cc1cc(SCc2cccc3nc(-c4ccc(C(F)(F)F)cc4)sc23)ccc1CCC(=O)O [Example 46, 3-{2-Methyl-4-[2-(4-trifluoromethylphenyl)benzothiazol-7-ylmethylsulfanyl]phenyl}propionic Acid]",136 to 139 °C
16,"O=C(O)Cc1csc2cc(SCc3cccc4nc(-c5ccc(C(F)(F)F)cc5)sc34)ccc12 [Example 47, 6-[2-(4-Trifluoromethylphenyl)benzothiazol-7-ylmethylsulfanyl]benzo[b]thiophen-3-ylacetic Acid]",201 to 204 °C
17,"Cc1cc(SC(C)c2ccc3nc(-c4ccc(C(F)(F)F)cc4)sc3c2)ccc1CCC(=O)O (racemic) [Example 63, (+/−)-3-(2-Methyl-4-{1-[2-(4-trifluoromethylphenyl)benzothiazol-6-yl]ethylsulfanyl}phenyl)propionic Acid]",159 to 161 °C
18,"CCc1cc(SCc2cccc3oc(-c4ccc(C(F)(F)F)cc4)nc23)ccc1OCC(=O)O [Example 67, 2-Ethyl-4-[2-(4-trifluoromethylphenyl)benzooxazol-4-ylmethylsulfanyl]phenoxyacetic Acid]",127 to 128 °C
